Data reported in patent publication US8034804B2 (N.V. Organon, priority 2001, dated 2011).

Legend:
AMPA receptor = test: Patch clamp whole cell electrophysiology: glutamate-evoked steady state current in cultured hippocampal neurons; assay type: cell-based; settings: 10 μM compound in extracellular solution; 0.5 mM glutamate; rat hippocampal neurons voltage clamped at −60 mV
From the text: The (pyrido/thieno)-[f]-oxazepin-5-one derivatives of the invention are AMPA receptor positive modulators, as can be determined by an increase in steady state current induced by application of glutamate in a conventional whole cell patch clamp method when a (pyrido/thieno)-[f]-oxazepin-5-one of the invention is present (see Example 10 and Table I). The compounds may be used in the treatment of neurological and psychiatric diseases where an enhancement of synaptic responses mediated by AMPA receptors is required, such as neurodegenerative disorders, cognitive or memory dysfunction, memory and learning disorders such as can result from ageing, attention disorder, trauma, stroke, epilepsy, Alzheimer's disease, depression, schizophrenia, psychotic disorders, sexual dysfunctions, autism, or a disorder or disease resulting from neurotic agents or substance abuse, and alcohol intoxication.
Hippocampal neuronal cultures were prepared from embryonic or 1-3 day old Sprague-Dawley rats which were decapitated and the heads immediately placed in ice cold HBS (HEPES Buffered Solution: 130 mM NaCl, 5.4 mM KCl, 10 mM HEPES, 1.0 mM MgCl2, 1.8 CaCl2, 25 mM glucose, adjusted to pH 7.4). The whole brain was excised and placed on pre-sterilised filter paper, soaked in HBS and the cerebellum was removed. The brain was chopped and an enzyme solution (0.5 mg/ml protease X and 0.5 mg/ml protease in HBS) was added and subsequently left for 40 minutes at room temperature to digest before trituration. Cells were resuspended and then counted to give a final concentration of 1.5×10^6 per ml. Cells were aliquoted onto poly-D-lysine- and Matrigel®-treated coverslips and left to incubate at 37° C. for 1-2 hours. When incubation was complete, 1 ml of growth medium was added to each well containing a coverslip and the cells were returned to the incubator. After 3-5 days the mitotic inhibitor cytosine arabinoside (5 μM) was added and the cells returned to the incubator until required.
The whole cell configuration of the patch clamp technique (Hamill et al., Pflügers Arch. 1981, 39, 85-100) was used to measure glutamate-evoked currents from postnatal hippocampal neurons maintained in culture for 4-7 days. A glass coverslip containing the culture was transferred to the recording chamber (Warner Instrument Corp., Hamden, Conn.) mounted on the stage of an inverted microscope (Nikon, Kingston, UK). The recording chamber contained 1-2 ml extracellular solution (145 mM NaCl, 5.4 mM KCl, 10 mM HEPES, 0.8 mM MgCl2, 1.8 CaCl2, 10 mM glucose and 30 mM sucrose, adjusted to pH 7.4 with 1 M NaOH) and was constantly perfused at a rate of 1 ml/min. Recordings were performed at room temperature (20-22° C.) using an Axopatch 200B amplifier (Axon Instruments Ltd., Foster City, Calif.). Data acquisition and analysis was performed using Signal software (Cambridge Electronic Design Ltd., Cambridge, UK). Pipettes were manufactured from GC120F-10 glass (Harvard Apparatus, Edenbridge UK) using a model P-87 electrode puller (Sutter Instruments Co., Novarto, Calif.). The patch electrodes had typical resistances of between 3-5 MΩ when filled with intracellular solution (140 mM potassium gluconate, 20 mM HEPES, 1.1 mM EGTA, 5 mM phosphocreatine, 3 mM ATP, 0.3 mM GTP, 0.1 mM CaCl2, 5 mM MgCl2, adjusted to pH 7.4 with 1 M KOH).
Cells were voltage clamped at a holding potential of −60 mV and glutamate (0.5 mM) was applied using a 12 channel semi-rapid drug application device (DAD-12. Digitimer Ltd., Welwyn Garden city, UK). The agonist glutamate was applied for 1 s every 30 s. […] Between applications saline flowed to clear any dead volume in the system. For each application steady-state currents were plotted from the difference in baseline and steady state current and averaged over 300 ms.
Two solutions of the compound in extracellular solution were made up, one with glutamate and one without. […]

Mice = test: Inhibition of amphetamine-induced hyperlocomotion; assay type: in vivo, mouse; settings: drug sc 30 minutes before 1.5 mg/kg d-amphetamine sulphate sc, locomotor activity measured for 60 minutes
Method: Mice were injected sc with drug treatment or vehicle control. 30 Minutes later mice were injected sc with 1.5 mg/kg d-amphetamine sulphate or saline and immediately placed in infra red locomotor boxes where locomotor activity (long duration beam breaks of two adjacent beams) and stereotypic behaviour (repetitive short-duration beam breaks) were measured for a period of 60 minutes. The experiment was analysed using a 3-Way ANOVA with experimental session, infra red locomotor boxes and treatment as factors, and in the case of treatment, significant effects were followed up using a Tukey (HSD) test.

Rats = test: Differential reinforcement of low rates of responding, 72 seconds (DRL72); assay type: in vivo, rat; settings: intraperitoneal route 30 minutes before 60 minute test session
Method: Rats are pretrained in a standard operant chamber to perform a DRL72 procedure according to Andrews et al (Andrews J S, Jansen J H M, Linders S, Princen A, Drinkenburg WHIM, Coenders C J H and Vossen J H M (1994). Effects of imipramine and mirtazapine on operant performance in rats. Drug Development Research, 32, 58-66). The test session lasts for 60 minutes with no limit to the number of trials. Each trial begins with the stimulus light on above the active lever. A response on the lever only results in delivery of a pellet if 72 seconds has elapsed. A response on the lever before 72 seconds has elapsed resets the timer and is not rewarded. The number of pellets earned and the number of lever presses is recorded and used to calculate an efficiency score. Test compounds are administered via the intraperitoneal route 30 minutes before the start of the test session. Antidepressants increase the number of pellets earned and decrease the number of lever presses.

| Compound | % Increase in steady state current at 10 μM (AMPA receptor) [%] | Inhibition of amphetamine induced hyperlocomotion (Mice) | DRL72 operant performance (pellets earned, lever presses): antidepressant like profile (Rats) |
| --- | --- | --- | --- |
| O=C1c2cc(Cl)sc2OC[C@@H]2CCCN12 [Example 5, (S)-7-Chloro-2,3,10,10a-tetrahydro-1H,5H-pyrrolo[2,1-c]thieno[3,2-f][1,4]oxazepine-5-one] | 16 | – | – |
| (S)-8-Methoxy-2,3,11,11a-tetrahydro-1H,5H-pyrrolo[2,1-c]Pyrido[3,2-f][1,4]oxazepine-5-one [Example 7] | 22 | – | – |
| O=C1c2ccc(C(F)(F)F)nc2OC[C@H]2CCCN12 [Example 2C, (R)-8-trifluoromethyl-2,3,11,11a-tetrahydro-1H,5H-pyrrolo[2,1-c]pyrido[3,2-f][1,4]-oxazepine-5-one] | 19 | – | – |
| O=C1c2ccc(Cl)nc2OC[C@@H]2CCCN12 [Example 4A, (S)-8-Chloro-2,3,11,11a-tetrahydro-1H,5H-pyrrolo[2,1-c]pyrido[3,2-f][1,4]oxazepine-5-one] | 16 | – | – |
| O=C1c2ccc(C(F)(F)F)nc2OC[C@@H]2CCCN12 [Example 2B, (S)-8-trifluoromethyl-2,3,11,11a-tetrahydro-1H,5H-pyrrolo[2,1-c]pyrido[3,2-f][1,4]-oxazepine-5-one] | 21 | – | – |
| O=C1c2sccc2OC[C@@H]2CCCN12 [Example 1] | 32 | inhibited amphetamine induced hyperlocomotion | – |
| O=C1c2cc(Cl)sc2OC[C@H]2CCCN12 [Example 6A, (R)-7-Chloro-2,3,10,10a-tetrahydro-1H,5H-pyrrolo[2,1-c]thieno[3,2-f][1,4]oxazepine-5-one] | 20 | – | – |
| O=C1c2ccc(Cl)nc2OC[C@H]2CCCN12 [Example 4B, (R)-8-Chloro-2,3,11,11a-tetrahydro-1H,5H-pyrrolo[2,1-c]pyrido[3,2-f][1,4]oxazepine-5-one] | 29 | – | – |
| Cc1ccc2c(n1)OCC1CCCN1C2=O.Cl [Example 3, (S)-8-Methyl-2,3,11,11a-tetrahydro-1H,5H-pyrrolo[2,1-c]pyrido[3,2-f][1,4]oxazepine-5-one Hydrochloride Salt] | 12 | – | – |
| (S)-2,3,11,11a-tetrahydro-1H,5H-pyrrolo[2,1-c]pyrido[3,2-f][1,4]oxazepine-5-one | 22 | inhibited amphetamine induced hyperlocomotion | antidepressant like profile |
| (+)-6,6a,7,8,9,10-hexahydro-12H-pyrido[2,1-c]pyrido[3,2-f][1,4]oxazepine-12-one [Example 4D] | 13 | – | – |
